In the experiment the target is Rho-associated protein kinase 1 (Homo sapiens, UniProt Q13464). Description: In Vitro Assay. The following applies: pH 7.5.
Chain of Rho-associated protein kinase 1 (Q13464 whole entry): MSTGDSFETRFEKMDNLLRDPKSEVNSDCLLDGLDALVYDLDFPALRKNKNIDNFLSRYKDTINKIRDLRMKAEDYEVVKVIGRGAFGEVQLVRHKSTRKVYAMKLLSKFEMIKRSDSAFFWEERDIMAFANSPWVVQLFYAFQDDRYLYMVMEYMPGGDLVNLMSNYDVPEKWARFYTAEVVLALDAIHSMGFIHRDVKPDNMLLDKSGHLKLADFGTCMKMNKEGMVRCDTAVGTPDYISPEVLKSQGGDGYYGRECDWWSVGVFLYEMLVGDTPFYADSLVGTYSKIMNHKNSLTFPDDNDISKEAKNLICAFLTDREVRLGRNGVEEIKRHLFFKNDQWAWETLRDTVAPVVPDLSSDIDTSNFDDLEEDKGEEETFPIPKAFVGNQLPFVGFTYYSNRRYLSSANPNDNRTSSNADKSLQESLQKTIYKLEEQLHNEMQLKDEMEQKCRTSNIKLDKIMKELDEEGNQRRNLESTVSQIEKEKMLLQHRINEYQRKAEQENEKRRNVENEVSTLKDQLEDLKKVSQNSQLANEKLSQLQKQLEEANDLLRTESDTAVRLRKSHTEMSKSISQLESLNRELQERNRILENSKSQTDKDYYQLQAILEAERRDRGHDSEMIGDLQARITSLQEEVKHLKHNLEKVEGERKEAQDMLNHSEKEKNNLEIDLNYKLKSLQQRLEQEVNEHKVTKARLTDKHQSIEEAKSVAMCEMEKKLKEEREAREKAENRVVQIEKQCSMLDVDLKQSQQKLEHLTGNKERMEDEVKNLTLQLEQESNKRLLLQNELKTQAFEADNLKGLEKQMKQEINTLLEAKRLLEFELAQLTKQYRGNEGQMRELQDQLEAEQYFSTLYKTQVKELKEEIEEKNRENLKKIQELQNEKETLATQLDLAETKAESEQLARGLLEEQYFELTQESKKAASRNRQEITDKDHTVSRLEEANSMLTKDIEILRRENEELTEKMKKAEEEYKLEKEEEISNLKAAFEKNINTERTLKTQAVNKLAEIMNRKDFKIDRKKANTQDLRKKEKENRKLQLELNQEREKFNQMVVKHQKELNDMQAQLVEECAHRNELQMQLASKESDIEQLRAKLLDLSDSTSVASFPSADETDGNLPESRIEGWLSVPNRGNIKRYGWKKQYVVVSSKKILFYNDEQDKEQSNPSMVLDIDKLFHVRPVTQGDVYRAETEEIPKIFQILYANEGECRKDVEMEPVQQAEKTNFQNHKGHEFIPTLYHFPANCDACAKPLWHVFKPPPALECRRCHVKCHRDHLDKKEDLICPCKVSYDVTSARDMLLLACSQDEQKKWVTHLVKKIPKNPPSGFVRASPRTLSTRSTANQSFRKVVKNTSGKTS

Regarding `CNC(=O)C[C@@H](NC(=O)c1ccc(-c2cn[nH]c2)c(C)c1)c1ccccc1` [US9458110, 252], the concentration for half-maximal inhibition (IC50) stood at 0.0411 µM. In other words, the double-digit nanomolar range.

One may read the IC50 as the point on the concentration scale where inhibition reaches its midpoint. A higher IC50 goes with lower potency.

The values above are taken from BindingDB's records for patent US9458110 (Bristol Myers Squibb, 2016).
